Data set [1] concerns human breast adenocarcinoma cell line, MCF-7. Briefly: resazurin viability assay, 72 h (Table 1). The format is cell-based. The settings on record: MCF7, 72h incubation, 156 nM-100 μM. An excerpt: (§1) In our experiments three different cell lines were used. Cells were purchased from the American Type Culture Collection (ATCC, Manassas, Va., USA). The human breast adenocarcinoma cell line, MCF-7 cells were maintained in Dulbecco's Modified Eagle Medium/Nutrient Mixture F-12 (DMEM/F12) 10% fetal calf serum (FCS, Gibco) and mouse mammary carcinoma 4T1 and human promyelocytic leukemia, HL-60 cells were maintained in Roswell Park Memorial Institute 1640 medium (RPMI-1640) 10% FCS. Media were supplemented with 2 mM GlutaMAX, and 100 U/mL penicillin, 100 μg/mL streptomycin (Life Technologies, Carlsbad, Calif., USA). Cell cultures were maintained at 37° C. in a humidified incubator in an atmosphere of 5% CO2 (Sanyo, Japan).
(§2) For viability assays cells were seeded in 96 well plates (MCF7 and 4T1: 6000, HL60: 120.000 cells/well) and incubated overnight. Compounds were dissolved in dimethyl sulfoxide (DMSO). Cells were treated with an increasing concentration of compounds having the general formula (I.) (156 nM-100 μM). Cell viability was determined after 72h incubation. Resazurin reagent (Sigma-Aldrich) was dissolved in PBS (pH 7.4) at 0.15 mg/ml concentration, sterile filtered (0.22 μm, Merck Millipore) and aliquoted at −20° C. Resazurin reagent (Sigma-Aldrich) was added at a final concentration of 25 μg/ml. After 2 hours incubation at 37° C. 5% CO2 fluorescence (530 nm excitation/580 nm emission) was recorded on a multimode microplate reader (Cytofluor4000, PerSeptive Biosytems). Viability was calculated with relation to untreated control cells and blank wells containing media without cells. IC50 values (50% inhibiting concentration) were calculated by GraphPad Prism® 5 (La Jolla, Calif., USA).
On the technique in general: The colour change of resazurin is a common sign of viable cells or microbes.

Data set [2] relates to human promyelocytic leukemia, HL-60 cells. Briefly: resazurin viability assay, 72 h (Table 1). The class given is cell-based. The settings on record: 72h incubation, 156 nM-100 μM.
Description: as §1, §2

For data set [3], the system named is mouse mammary carcinoma 4T1. The experiment in a line: resazurin viability assay, 72 h (Table 1). The settings on record: 72h incubation, 156 nM-100 μM. The format is cell-based.
Description: as §1, §2

The values below come from patent US20220064167A1, “IMIDAZO-PYRAZOLE CARBOXAMIDE DERIVATIVES AS ANTICANCER AGENTS AND THE SYNTHESIS THEREOF” (AVIDIN KFT., priority 2018, published 2022).

pIC50: −log10 of the molar value. Bounds are passed on as bounds.

Compound `Cc1ccccc1NC(=O)c1cnn2c(NC(C)(C)CC(C)(C)C)c(C(C)(C)C)[nH]c12` [Example 40, 2-(Tert-butyl)-N-(o-tolyl)-3-((2,4,4-trimethylpentan-2-yl)amino)-1H-imidazo[1,2-b]pyrazole-7-carboxamide] yielded a melting point of 172 °C. This compound gave a negative-log IC50 (pIC50) in data set [1] of 4.51. This compound also showed a negative-log IC50 (pIC50) in data set [2] of 5.67. The compound further showed a negative-log IC50 (pIC50) in data set [3] below 4.30.
The like results for `COc1ccc(NC(=O)c2cnn3c(NC(C)(C)CC(C)(C)C)c(C(C)(C)C)[nH]c23)cc1` [Example 43, 2-(Tert-butyl)-N-(4-methoxyphenyl)-3-((2,4,4-trimethylpentan-2-yl)amino)-1H-imidazo[1,2-b]pyrazole-7-carboxamide] were, in that order, 187 to 188 °C, 4.75, 5.95 and 4.61.
The like results for `CC(C)(C)CC(C)(C)Nc1c(C(C)(C)C)[nH]c2c(C(=O)Nc3cccc(C(F)(F)F)c3)cnn12` [Example 46, 2-(Tert-butyl)-N-(3-(trifluoromethyl)phenyl)-3-((2,4,4-trimethylpentan-2-yl)amino)-1H-imidazo[1,2-b]pyrazole-7-carboxamide] were, in that order, 180 °C, below 4.30, 4.94 and 4.45.
For `CC(C)(C)CC(C)(C)Nc1c(C(C)(C)C)[nH]c2c(C(=O)Nc3ccc(C(F)(F)F)cc3)cnn12` [Example 47, 2-(Tert-butyl)-N-(4-(trifluoromethyl)phenyl)-3-((2,4,4-trimethylpentan-2-yl)amino)-1H-imidazo[1,2-b]pyrazole-7-carboxamide], in that order: 155 to 156 °C, 4.54, below 4.30 and below 4.30.
Compound `CC(C)(C)CC(C)(C)Nc1c(C(C)(C)C)[nH]c2c(C(=O)Nc3ccccc3F)cnn12` [Example 48, 2-(Tert-butyl)-N-(2-fluorophenyl)-3-((2,4,4-trimethylpentan-2-yl)amino)-1H-imidazo[1,2-b]pyrazole-7-carboxamide] registered a melting point of 153 to 154 °C. This compound had a pIC50 in data set [1] below 4.30. Also, the pIC50 in data set [2] was 5.69. Further, the negative logarithm of the IC50 (pIC50) in data set [3] was below 4.30.
Take `CC(C)(C)CC(C)(C)Nc1c(C(C)(C)C)[nH]c2c(C(=O)Nc3cccc(F)c3)cnn12` [Example 49, 2-(Tert-butyl)-N-(3-fluorophenyl)-3-((2,4,4-trimethylpentan-2-yl)amino)-1H-imidazo[1,2-b]pyrazole-7-carboxamide]: the melting point worked out at 159 °C. Moreover, in data set [1], the pIC50 is 4.76. The pIC50 in data set [2] was 5.35. The compound also showed a negative-log IC50 (pIC50) in data set [3] of 4.63.
For `CC(C)(C)CC(C)(C)Nc1c(C(C)(C)C)[nH]c2c(C(=O)Nc3ccc(F)cc3)cnn12` [Example 50, 2-(Tert-butyl)-N-(4-fluorophenyl)-3-((2,4,4-trimethylpentan-2-yl)amino)-1H-imidazo[1,2-b]pyrazole-7-carboxamide], in that order: 188 °C, 5.63, 6.74 and 5.13.
For `CC(C)(C)CC(C)(C)Nc1c(C(C)(C)C)[nH]c2c(C(=O)Nc3ccc(Br)cc3)cnn12` [Example 52, N-(4-Bromophenyl)-2-(tert-butyl)-3-((2,4,4-trimethylpentan-2-yl)amino)-1H-imidazo[1,2-b]pyrazole-7-carboxamide], in that order: 153 to 154 °C, below 4.30, 4.71 and below 4.30.
Take `CC(C)(C)CC(C)(C)Nc1c(C(C)(C)C)[nH]c2c(C(=O)Nc3ccc([N+](=O)[O-])cc3)cnn12` [Example 53, 2-(Tert-butyl)-N-(4-nitrophenyl)-3-((2,4,4-trimethylpentan-2-yl)amino)-1H-imidazo[1,2-b]pyrazole-7-carboxamide]: the melting point stood at 199 °C. The pIC50 in data set [1] was 5.00. For the same compound, the pIC50 in data set [2] was 5.12. In addition, the negative logarithm of the IC50 (pIC50) in data set [3] is 4.57.
For `CC(C)(C)CC(C)(C)Nc1c(C(C)(C)C)[nH]c2c(C(=O)Nc3ccc(C#N)cc3)cnn12` [Example 54, 2-(Tert-butyl)-N-(4-cyanophenyl)-3-((2,4,4-trimethylpentan-2-yl)amino)-1H-imidazo[1,2-b]pyrazole-7-carboxamide], in that order: 199 °C, 5.01, 5.82 and below 4.30.
The like results for `CCOC(=O)c1ccc(NC(=O)c2cnn3c(NC(C)(C)CC(C)(C)C)c(C(C)(C)C)[nH]c23)cc1` [Example 55, Ethyl 4-(2-(tert-butyl)-3-((2,4,4-trimethylpentan-2-yl)amino)-1H-imidazo[1,2-b]pyrazole-7-carbox-amido)benzoate] were, in that order, 127 to 128 °C, below 4.30, 5.07 and below 4.30.
Turning to `CSc1ccc(NC(=O)c2cnn3c(NC(C)(C)CC(C)(C)C)c(C(C)(C)C)[nH]c23)cc1` [Example 56, 2-(Tert-butyl)-N-(4-(methylthio)phenyl)-3-((2,4,4-trimethylpentan-2-yl)amino)-1H-imidazo[1,2-b]pyrazole-7-carboxamide], the melting point was in the range of 169 to 170 °C. The same compound had a pIC50 in data set [1] of 4.66. The compound further gave a pIC50 in data set [2] of 5.41. The negative logarithm of the IC50 (pIC50) in data set [3] was below 4.30.
For `CN(C)c1ccc(NC(=O)c2cnn3c(NC(C)(C)CC(C)(C)C)c(C(C)(C)C)[nH]c23)cc1` [Example 57, 2-(Tert-butyl)-N-(4-(dimethylamino)phenyl)-3-((2,4,4-trimethylpentan-2-yl)amino)-1H-imidazo[1,2-b]pyrazole-7-carboxamide], in that order: 176 to 177 °C, 5.00, 6.53 and 4.93.
For `CC(C)(C)CC(C)(C)Nc1c(C(C)(C)C)[nH]c2c(C(=O)Nc3ccc(F)cc3F)cnn12` [Example 58, 2-(Tert-butyl)-N-(2,4-difluorophenyl)-3-((2,4,4-trimethylpentan-2-yl)amino)-1H-imidazo[1,2-b]pyrazole-7-carboxamide], in that order: 174 °C, below 4.30, 6.20 and below 4.30.
`CC(C)(C)CC(C)(C)Nc1c(C(C)(C)C)[nH]c2c(C(=O)Nc3ccc(F)c(F)c3)cnn12` [Example 59, 2-(Tert-butyl)-N-(3,4-difluorophenyl)-3-((2,4,4-trimethylpentan-2-yl)amino)-1H-imidazo[1,2-b]pyrazole-7-carboxamide] gave a melting point of 162 to 164 °C. Further, in data set [1], the negative-log IC50 (pIC50) was 4.99. Besides, the pIC50 in data set [2] is 5.62. In data set [3], this compound showed a negative logarithm of the IC50 (pIC50) of 4.72.

One may read the pIC50 as the negative decadic logarithm of the IC50, by convention in mol/L. The low end stands for a large IC50, the high end for a small IC50. For orientation: melting point means the temperature, or range, at which the solid turns liquid.
